Source: patent publication US8663619B2, “Murgantiol as an indoor stink bug attractant” (Sterling International Inc., priority 2011, dated 2014)

Experiments:
[1] = system: brown marmorated stink bug (BMSB), Halyomorpha halys (Stål); assay: Indoor trapping experiment with murgantiol-baited Rescue! Stink Bug Traps in homes; format: in vivo; conditions: for behavioral attraction of indoor stink bugs to baited traps: 5 mg lure on rubber septum, traps inside homes, early May, compared to blank control; for stink bugs caught relative to the blank control traps: 5 mg lure, indoor traps, blank control caught average 1 bug/trap
Description: A trapping experiment was carried out inside three homes with decent overwintering stink bug populations in Pittsburgh, Pa., during twelve days in early May to study potential attraction of the BMSB adults to a known Harlequin bug pheromone, murgantiol. During or before the experiment, overwintering stink bugs started waking up from their hibernation stage and walking/crawling inside homes. Three treatment lures and a blank control were tested using Sterling Rescue!® Stink Bug Traps (FIG. 1) in a block design. The three treatments included (i) 5 mg of more polar murgantiol mixture (a mixture of 8 more polar stereoisomers); (ii) 5 mg of less polar murgantiol mixture (a mixture of 8 less polar stereoisomers); and (iii) 5 mg of a racemic mixture of all 16 murgantiol stereoisomers. The test samples of (i), (ii), and (iii) were synthesized and separated based on the methods described by Zahn et al., J. Chem. Ecol. 34:238 (2008). The following scheme outlines the method starting from citronellal to prepare a racemic mixture of stereomers:
Lures were prepared by loading hexane solutions of the test compounds with 1% butylated hydroxytoluene (BHT) added as stabilizer onto grey rubber septa (5 mm sleeve-type; The West Co., Lititz, Pa.) via a rotor evaporator. The blank control dispensers were made in the same fashion as the treatment lures, but without any murgantiol mixtures—that is, rubber septum with hexane only. A set of four Sterling Rescue!® Stink Bug Traps baited with three different isomer mixture test samples of murgantiol dispensers and the blank control were set up in the same room of each selected home on the floor or hung from walls near windows (where stink bug activities were seen earlier). The starting positions of the four test traps within each set (room) were assigned randomly. The distance between traps within the same set was about 8-10 feet, depending on the size of each test room. Traps were checked every day and emptied when ≧5 bugs were captured in the best trap within the set, and their positions were re-randomized for a new replicate to minimize any positional effects.
Trap catch data were converted to proportion (P) of total captured bugs within each replicate to meet the assumptions of normality and homogeneity of variances for ANOVA (analysis of variance). Means were compared by ANOVA followed by the Duncan's multiple range test at α=0.05.

[2] = system: Harlequin bug, Murgantia histrionica (Hahn); conditions: both sexes; insect-produced and synthetic murgantiol; laboratory bioassays; cited from earlier work

Structure (SMILES)	behavioral attraction of indoor stink bugs to baited traps [1]	stink bugs caught relative to the blank control traps [1]	attractiveness to BMSB adults indoors ([1]; both sexes, indoors during the overwintering and transition periods)	attraction of sexually mature Harlequin bugs [2]
CC(CCC1OC1(C)C)C1C=CC(C)(O)CC1 (racemic) [racemic mixture of all 16 murgantiol stereoisomers]	significant attraction	five times		
CC(CCC1OC1(C)C)C1C=CC(C)(O)CC1 (single isomer, unassigned) [less polar murgantiol mixture]	weakly attractive			
CC(CCC1OC1(C)C)C1C=CC(C)(O)CC1 (single isomer, unassigned) [more polar murgantiol mixture]	strong attraction	six times		
CC(CCC1OC1(C)C)C1C=CC(C)(O)CC1 (stereo not shown) [murgantiol, 4-[3-(3,3-dimethyloxiran-2-yl)-1-methylpropyl]-1-methylcyclohex-2-en-1-ol]			strongly attractive	attracted sexually mature Harlequin bugs of both sexes
